“Also recorded” adds a separate entry of the source.
Key:
[1] = system: primary mesencephalic cultures; experiment: MTT cell viability assay; type: cell-based, mouse; conditions: 24 h
Description: The cytotoxic effect of compounds treatment was measured by evaluating mitochondrial dehydrogenase activity using the MTT salt assay.
Neuronal differentiated SK—N—SH cells were thus exposed to different concentrations of I-threo, IV-threo, I-erythro, V-threo and V-erythro as described above, and then used for the MTT cell viability assay.
Animals: C57BL/6J wt mice (C57BL/6J) (Charles River, Wilmington, MA) used in this study, were bred in our animal house facility at the Department of Molecular and Translational Medicine of University of Brescia. Animals were maintained under a 12h light-dark cycle at a room temperature (rt) of 22° C. and had ad libitum food and water. All experiments were made in accordance to Directive 2010/63/EU of the European Parliament and of the Council of 22 Sep. 2010 on the protection of animals used. All experimental and surgical procedures conformed to the National Research Guide for the Care and Use of Laboratory Animals were approved by the Animal Research Committees of the University of Brescia (Protocol Permit 719/2015-PR). All achievements were made to minimize animal suffering and to reduce the number of animals used. Primary neuronal cultures from mesencephalic tissues were dissected from C57BL/6J 13-days embryos. Briefly, after mechanical dissociation the single cells were re-suspended in Neurobasal medium containing 100 μg/ml penicillin, 100 μg/ml streptomycin, 0.5 mM glutamine and 1% B27 supplement. Cells were then centrifuged and cell count and viability assays were performed using the Trypan Blue exclusion test. Cells were seeded onto poly-D-lysine-coated glass coverslides in 24-well plates (14 μg/mL) for immunocytochemistry (100000 cells/well). Cells were maintained at 37° C. under a humidified atmosphere of 5% CO2 and […] for at least 10 days in vitro (DIV 10) prior to their use to allow their maturation. At DIV 10, cells were treated with increasing concentrations (0.01 μM-0.1 μM-1 μM-[…]) of the different compounds (I-threo, IV-threo, I-erythro, V-threo, VI-threo). Twenty-four h after the treatments, culture medium was removed and 300 μL of MTT 0.5 mg/mL diluted in culture medium was added to each well. After 90′ incubation at 37° C., the medium was removed and 250 μL aliquots of DMSO were added to each well to solubilize the formazan crystals. Absorbance was measured at 570 nm using a microplate reader. Cell viability was expressed as absorbance value.

[2] = system: alpha-synuclein aggregation in SK—N—SH cells; experiment: Alpha-synuclein aggregation after glucose deprivation in SK-N-SH alpha-synuclein stable clones (immunocytochemistry); type: cell-based, human
Description: Human neuroblastoma SK—N—SH full length (fl) alpha-synuclein stable clones were seeded onto poly-D-lysine-coated glass coverslides in 24-well plates and were grown in complete medium comprising Dulbecco's modified Eagle's medium with 1000 mg glucose/l supplemented with 10% heat-inactivated fetal bovine serum, 100 μg/ml penicillin and 100 μg/ml streptomycin. Cells were maintained at 37° C. under a humidified atmosphere of 5% CO2 and […]. At 80% confluence, cells underwent glucose deprivation (GD) in order to induce alpha-synuclein aggregation (Bellucci, A.; et al. Journal of neurochemistry 2008, 106, 560-577). Briefly, GD was performed through an incubation of the cells with Hank's balanced salt solution supplemented with 2 mM glutamine and 10% heat-inactivated fetal bovine serum, for 1 h at 37° C. […] After 24 h of treatment, cells were fixed by incubating for 15 min in 4% paraformaldehyde with 4% sucrose in 1 M PBS, pH 7.4. The fixed cells were then stored in PBS-containing 0.05% sodium azide. Slides were incubated for 1 h at room temperature in blocking solution [2% w/v bovine serum albumin (BSA) plus 3% v/v normal goat serum in PBS], then overnight at 4° C. with the primary antibody (Syn211 antibody against alpha-synuclein) at the optimal working dilution. On the following day, cells were incubated for 1 h at room temperature with the Cy3-conjugated secondary antibody diluted in 0.1% Triton X-100 PBS plus BSA 1 mg/ml. Finally, cell nuclei were counterstained with Hoechst 33258 dye, and the coverslips were mounted onto glass slides using Vectashield.

[3] = system: alpha-synuclein aggregation in primary mesencephalic neurons; experiment: Alpha-synuclein aggregation in primary mouse midbrain neurons exposed to glucose deprivation; type: cell-based
[4] = system: SYN120 tg mice; experiment: Open-field motility after acute i.p. injection in SYN120 tg mice; type: in vivo, mouse; conditions: acute i.p. 10 mg/kg, 12 month-old SYN120 tg mice
From the text: We investigated the ability of compound I-threo to stimulate the motility of Parkinson's disease mice more efficiently that MPH. […] All experiments were made in accordance with Directive 2010/63/EU of the European Parliament and of the Council of 22 Sep. 2010 on the protection of animals used. All experimental procedures conformed to the National Research Guide for the Care and Use of Laboratory Animals and were approved by the Animal Research Committees of the University of Brescia (Protocol Permit 719/2015-PR). Three different groups of 12 month-old SYN120 tg mice (N=3 animals per group) were used for the motility assay by using the open-field behavioural paradigm. The motility of the animals in the open-field arena was registered and analysed by using the Any-Maze system. […] The total distance travelled by the mice during 2.5 minutes intervals was plotted on graphs.

[5] = system: SYN120 tg mice; experiment: Immunohistochemistry of nigrostriatal alpha-synuclein deposition and striatal dopaminergic fibers after chronic treatment of SYN120 tg mice; type: in vivo, mouse; conditions: daily i.p. 5 mg/kg for 6 weeks
From the text: After the behavioral studies animals were sacrificed by transcardiac perfusion to collect their brains, which were used for immunohistochemical studies aimed at evaluating the efficacy of compound I-threo to reduce pathological alpha-synuclein deposition and neuroprotection in the nigrostriatal system.
First, we quantified aggregated alpha-synuclein pathological deposition by using an antibody specifically recognizing aggregated alpha-synuclein in the subtantia nigra and striatum of mice.
Then alpha-synuclein aggregation was evaluated also by using Thioflavin-S a dye recognizing fibrillary aggregates. […] Please note that dopaminergic neurons or fibers in the images were labelled in light blue.
Finally, we evaluated the neuroprotective effect of the chronic treatment with compound I-threo by quantifying the recovery of striatal dopaminergic fibers in the SYN120 tg mice treated with the compound when compared to the vehicle-treated animals.

SMILES | cell viability (MTT) at 100 μM [1] | alpha-synuclein aggregates seen in images after GD ([2]; 10 μM, 24 h, vs non-treated (NT) cells, preliminary) | formation of alpha-synuclein inclusions after GD (immunofluorescence intensity and average particle size) ([2]; 10 μM, 24 h after 1 h glucose deprivation, vs untreated, hydrochloride) | EC50 ([2]; Homo sapiens, SK-N-SH cells, read-out: EC50 in reducing alpha-synuclein aggregation) [nM] | efficacy (% effect) in reducing alpha-synuclein aggregation, compared with MPH ([2]; SK-N-SH cells) | EC50 fold lower than that of MPH ([2]; SK-N-SH cells, I-threo vs MPH) [fold] | alpha-synuclein inclusion formation (total immunofluorescence intensity and particle size) ([3]; I-threo, VI-threo 50 and 100 nM, MPH 100 nM, hydrochloride) | efficiency higher than that of MPH ([3]; primary neurons) | cell viability (MTT) at 100 μM ([1]; hydrochloride) | toxic effects (MTT) at the working concentrations ([1]; concentrations reducing aggregation or stimulating interaction) | motility (total distance travelled) in open field arena [4] | Thioflavin-S signal in substantia nigra and striatum [5] | aggregated alpha-synuclein in substantia nigra and striatum ([5]; vs vehicle) | striatal TH-positive dopaminergic fibers ([5]; vs vehicle)
COC(=O)[C@H](c1ccc(C)cc1)C1CCCCN1.Cl (stereo partly drawn) [I-erythro] | did not result toxic |  |  |  |  |  |  |  |  |  |  |  |  | 
COC(=O)[C@@H](c1ccc(C)cc1)C1CCCCN1.Cl (stereo partly drawn) [I-threo, threo methyl 2-(piperidin-2-yl)-2-(p-tolyl)acetate hydrochloride] |  | no aggregates were observed | significantly reduce the formation of alpha-synuclein inclusions; also recorded: significantly reduce alpha-synuclein aggregation in vitro | 431 | almost comparable | 200 | significantly reduce alpha-synuclein inclusion formation; also recorded: efficiently hinders alpha-synuclein aggregation | 50-70% | reduce the cell viability; also recorded: significant decrease in cell viability | did not exhibit toxic effects | improve the motility of SYN120 tg mice more efficiently than MPH | marked reduction of thioflavin-S signal | statistically significant reduction of aggregated alpha-synuclein | significant recovery of striatal TH-positive dopaminergic fibers

Source: US12629359B2 (UNIVERSITA' DEGLI STUDI DI BRESCIA, priority 2020, dated 2026)
